Experimental data from patent publication US12185723B2, “Herbicidally active 3-phenylisoxazoline-5-carboxamides of s-containing cyclopentenylcarboxylic esters” (Bayer Aktiengesellschaft, priority 2019, dated 2025).

Columns and labels:
Format in all cases: in vivo
Alopecurus myosuroides = experiment: Post-emergence herbicidal action against ALOMY; settings: visual rating about 3 weeks after treatment
Procedure, shortened: (§1)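 Post-emergence application onto green parts at the one-leaf stage, 2 to 3 weeks after sowing in sandy loam. Spray carried 0.5% additive at a water rate of 600 l/ha. Percent activity assessed by eye at about 3 weeks, where 100% means plants died and 0% matches controls.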

Avena fatua = experiment: Post-emergence herbicidal action against AVEFA; settings: visual rating about 3 weeks after treatment
Procedure, shortened: as §1

DIGSA = experiment: Post-emergence herbicidal action against DIGSA; settings: visual rating about 3 weeks after treatment
Procedure, shortened: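 Greenhouse-grown plants sprayed at one-leaf stage (2–3 weeks after sowing) with WP or EC formulations as aqueous suspension/emulsion plus 0.5% additive, 600 l/ha water. Activity rated visually about 3 weeks later versus untreated controls, 100% = plants dead, 0% = like controls.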

Echinochloa crus-galli = experiment: Post-emergence herbicidal action against ECHCG; settings: visual rating about 3 weeks after treatment
Procedure, shortened: as §1

Lolium rigidum = experiment: Post-emergence herbicidal action against LOLRI; settings: visual rating about 3 weeks after treatment
Procedure, shortened: as §1

Setaria viridis = experiment: Post-emergence herbicidal action against SETVI; settings: visual rating about 3 weeks after treatment
Procedure, shortened: as §1

Abutilon theophrasti = experiment: Post-emergence herbicidal action against ABUTH; settings: visual rating about 3 weeks after treatment
Procedure, shortened: as §1

Amaranthus retroflexus = experiment: Post-emergence herbicidal action against AMARE
Procedure, shortened: as §1

Matricaria inodora = experiment: Post-emergence herbicidal action against MATIN
Procedure, shortened: as §1

Pharbitis purpurea = experiment: Post-emergence herbicidal action against PHBPU
Procedure, shortened: as §1

Polygonum convolvulus = experiment: Post-emergence herbicidal action against POLCO
Procedure, shortened: as §1

Stellaria media = experiment: Post-emergence herbicidal action against STEME
Procedure, shortened: as §1

Viola tricolor = experiment: Post-emergence herbicidal action against VIOTR
Description: Post-Emergence Herbicidal Action Against Harmful Plants and Crop Plant Compatibility Seeds of monocotyledonous and dicotyledonous weeds and crop plants are placed in sandy loam in plastic or wood-fibre pots, covered with soil and cultivated in a greenhouse under controlled growth conditions. 2 to 3 weeks after sowing, the test plants are treated at the one-leaf stage. The compounds of the invention, formulated in the form of wettable powders (WP) or as emulsion concentrates (EC), are then sprayed onto the green parts of the plants as aqueous suspension or emulsion with addition of 0.5% additive at a water application rate of 600 l/ha (converted). After the test plants have been kept in the greenhouse under optimum growth conditions for about 3 weeks, the activity of the preparations is rated visually in comparison to untreated controls. For example, 100% activity=the plants have died, 0% activity=like control plants. [table]

Veronica persica = experiment: Post-emergence herbicidal action against VERPE
Procedure, shortened: as §1

Hordeum murinum = experiment: Post-emergence herbicidal action against HORMU
Procedure, shortened: as §1

[1] = 80 g a.i./ha, visual rating about 3 weeks after treatment

## CSCCOC(=O)C1C=CC(NC(=O)C2(C(F)(F)F)CC(c3cc(F)cc(C#N)c3)=NO2)C1 (mixture of isomers) [Example I-38]
Alopecurus myosuroides; 20 g a.i./ha
  Herbicidal action against [%] ALOMY: 80%
Alopecurus myosuroides; 80 g a.i./ha
  Herbicidal action against [%] ALOMY: 90%
Avena fatua; 20 g a.i./ha
  Herbicidal action against [%] AVEFA: 90%
Avena fatua; 80 g a.i./ha
  Herbicidal action against [%] AVEFA: 90%
DIGSA; 20 g a.i./ha
  Herbicidal action against [%] DIGSA: 90%
DIGSA; 80 g a.i./ha
  Herbicidal action against [%] DIGSA: 90%
Echinochloa crus-galli; 20 g a.i./ha
  Herbicidal action against [%] ECHCG: 90%
Echinochloa crus-galli; 80 g a.i./ha
  Herbicidal action against [%] ECHCG: 90%
Lolium rigidum; 20 g a.i./ha
  Herbicidal action against [%] LOLRI: 90%
Lolium rigidum; 80 g a.i./ha
  Herbicidal action against [%] LOLRI: 90%
Setaria viridis; 20 g a.i./ha
  Herbicidal action against [%] SETVI: 90%
Setaria viridis; 80 g a.i./ha
  Herbicidal action against [%] SETVI: 90%
Abutilon theophrasti; 20 g a.i./ha
  Herbicidal action against [%] ABUTH: 90%
Abutilon theophrasti; 80 g a.i./ha
  Herbicidal action against [%] ABUTH: 90%
Amaranthus retroflexus; 20 g a.i./ha
  Herbicidal action against [%] AMARE: 80%
Amaranthus retroflexus; [1]
  Herbicidal action against [%] AMARE: 80%
Matricaria inodora; [1]
  Herbicidal action against [%] MATIN: 80%
Pharbitis purpurea; 80 g a.i./ha
  Herbicidal action against [%] PHBPU: 90%
Polygonum convolvulus; 20 g a.i./ha
  Herbicidal action against [%] POLCO: 90%
Polygonum convolvulus; 80 g a.i./ha
  Herbicidal action against [%] POLCO: 90%
Stellaria media; 20 g a.i./ha
  Herbicidal action against [%] STEME: 100%
Stellaria media; 80 g a.i./ha
  Herbicidal action against [%] STEME: 100%
Viola tricolor; 20 g a.i./ha
  Herbicidal action against [%] VIOTR: 100%
Viola tricolor; 80 g a.i./ha
  Herbicidal action against [%] VIOTR: 80%
Veronica persica; 20 g a.i./ha
  Herbicidal action against [%] VERPE: 90%
Veronica persica; 80 g a.i./ha
  Herbicidal action against [%] VERPE: 90%
Hordeum murinum; 20 g a.i./ha
  Herbicidal action against [%] HORMU: 80%
Hordeum murinum; 80 g a.i./ha
  Herbicidal action against [%] HORMU: 80%

## CSCCOC(=O)C1C=CC(NC(=O)C2(C3CC3)CC(c3cc(F)cc(F)c3)=NO2)C1 (stereo not shown) [Example I-28]
Alopecurus myosuroides; 20 g a.i./ha
  Herbicidal action against [%] ALOMY: 90%
Alopecurus myosuroides; 80 g a.i./ha
  Herbicidal action against [%] ALOMY: 90%
Avena fatua; 20 g a.i./ha
  Herbicidal action against [%] AVEFA: 90%
Avena fatua; 80 g a.i./ha
  Herbicidal action against [%] AVEFA: 90%
DIGSA; 20 g a.i./ha
  Herbicidal action against [%] DIGSA: 90%
DIGSA; 80 g a.i./ha
  Herbicidal action against [%] DIGSA: 90%
Echinochloa crus-galli; 20 g a.i./ha
  Herbicidal action against [%] ECHCG: 90%
Echinochloa crus-galli; 80 g a.i./ha
  Herbicidal action against [%] ECHCG: 90%
Lolium rigidum; 20 g a.i./ha
  Herbicidal action against [%] LOLRI: 90%
Lolium rigidum; 80 g a.i./ha
  Herbicidal action against [%] LOLRI: 90%
Setaria viridis; 20 g a.i./ha
  Herbicidal action against [%] SETVI: 90%
Setaria viridis; 80 g a.i./ha
  Herbicidal action against [%] SETVI: 90%
Abutilon theophrasti; 20 g a.i./ha
  Herbicidal action against [%] ABUTH: 90%
Abutilon theophrasti; 80 g a.i./ha
  Herbicidal action against [%] ABUTH: 90%
Amaranthus retroflexus; 20 g a.i./ha
  Herbicidal action against [%] AMARE: 80%
Amaranthus retroflexus; [1]
  Herbicidal action against [%] AMARE: 80%
Matricaria inodora; 20 g a.i./ha
  Herbicidal action against [%] MATIN: 80%
Matricaria inodora; [1]
  Herbicidal action against [%] MATIN: 90%
Polygonum convolvulus; 20 g a.i./ha
  Herbicidal action against [%] POLCO: 80%
Polygonum convolvulus; 80 g a.i./ha
  Herbicidal action against [%] POLCO: 90%
Stellaria media; 20 g a.i./ha
  Herbicidal action against [%] STEME: 90%
Stellaria media; 80 g a.i./ha
  Herbicidal action against [%] STEME: 90%
Viola tricolor; 20 g a.i./ha
  Herbicidal action against [%] VIOTR: 90%
Viola tricolor; 80 g a.i./ha
  Herbicidal action against [%] VIOTR: 80%
Veronica persica; 20 g a.i./ha
  Herbicidal action against [%] VERPE: 90%
Veronica persica; 80 g a.i./ha
  Herbicidal action against [%] VERPE: 90%
Hordeum murinum; 20 g a.i./ha
  Herbicidal action against [%] HORMU: 90%
Hordeum murinum; 80 g a.i./ha
  Herbicidal action against [%] HORMU: 90%

## CSCCOC(=O)C1C=CC(NC(=O)C2(C)CC(c3cc(Cl)cc(C#N)c3)=NO2)C1 (mixture of isomers) [Example I-49]
Alopecurus myosuroides; 20 g a.i./ha
  Herbicidal action against [%] ALOMY: 90%
Alopecurus myosuroides; 80 g a.i./ha
  Herbicidal action against [%] ALOMY: 100%
Avena fatua; 20 g a.i./ha
  Herbicidal action against [%] AVEFA: 90%
Avena fatua; 80 g a.i./ha
  Herbicidal action against [%] AVEFA: 90%
DIGSA; 20 g a.i./ha
  Herbicidal action against [%] DIGSA: 80%
DIGSA; 80 g a.i./ha
  Herbicidal action against [%] DIGSA: 90%
Echinochloa crus-galli; 80 g a.i./ha
  Herbicidal action against [%] ECHCG: 80%
Lolium rigidum; 20 g a.i./ha
  Herbicidal action against [%] LOLRI: 90%
Lolium rigidum; 80 g a.i./ha
  Herbicidal action against [%] LOLRI: 90%
Setaria viridis; 80 g a.i./ha
  Herbicidal action against [%] SETVI: 80%
Abutilon theophrasti; 80 g a.i./ha
  Herbicidal action against [%] ABUTH: 80%
Amaranthus retroflexus; 20 g a.i./ha
  Herbicidal action against [%] AMARE: 90%
Amaranthus retroflexus; [1]
  Herbicidal action against [%] AMARE: 100%
Matricaria inodora; [1]
  Herbicidal action against [%] MATIN: 80%
Pharbitis purpurea; 20 g a.i./ha
  Herbicidal action against [%] PHBPU: 80%
Stellaria media; 20 g a.i./ha
  Herbicidal action against [%] STEME: 90%
Stellaria media; 80 g a.i./ha
  Herbicidal action against [%] STEME: 90%
Viola tricolor; 20 g a.i./ha
  Herbicidal action against [%] VIOTR: 90%
Viola tricolor; 80 g a.i./ha
  Herbicidal action against [%] VIOTR: 80%
Veronica persica; 20 g a.i./ha
  Herbicidal action against [%] VERPE: 80%
Veronica persica; 80 g a.i./ha
  Herbicidal action against [%] VERPE: 90%
Hordeum murinum; 20 g a.i./ha
  Herbicidal action against [%] HORMU: 80%
Hordeum murinum; 80 g a.i./ha
  Herbicidal action against [%] HORMU: 80%
